Test results published in patent publication US11319306B2, “Compositions and methods for treating neurodegenerative diseases” (Azevan Pharmaceuticals, Inc., priority 2014, dated 2022).

Biological target: T1, human V1a receptor (Homo sapiens, UniProt P37288)
T1 construct: host or cells: CHO cells (hV1a cell line)
Assay: Human vasopressin V1a receptor binding assay (3H-AVP competition, hV1a CHO cells)
Details: 3H-AVP competition, CHO cells expressing human V1a; for Ki: read-out: V1a Ki; for IC50: read-out: V1a Binding Affinity IC50
Protocol: Human vasopression V1a receptor binding assay. A cell line expressing the human V1a receptor in CHO cells (henceforth referred to as the hV1a cell line) was obtained from Dr. Michael Brownstein, NIMH, Bethesda, Md., USA. The hV1a cDNA sequence is described by Thibonnier et al., Journal of Biological Chemistry, 269, 3304-3310 (1994), and the expression method was the same as described by Morel et al. (1992). The hV1a cell line was grown in alpha-MEM with 10% fetal bovine serum and 250 ug/ml G418 (Gibco, Grand Island, N.Y., USA). For competitive binding assay, hV1a cells were plated into 6-well culture plate at 1:10 dilution from a confluency flask, and maintained in culture for at least two days. Culture medium was then removed, cells were washed with 2 ml binding buffer (25 mM Hepes, 0.25% BSA, 1×DMEM, PH=7.0). To each well, 990 μl binding buffer containing InM 3H-AVP was added, and followed by 10 μl series diluted Example compounds dissolved in DMSO. […] 100 nM cold AVP (Sigma) was used to assess non-specific binding. Cells were incubated for 45 minutes at 37° C., assay mixture was removed and each well was washed three times with PBS (pH=7.4). 1 ml 2% SDS was added per well and plates were let sit for 30 minutes. The whole content in a well was transferred to a scintillation vial. Each well was rinsed with 0.5 ml PBS which was then added to the corresponding vial. Scintillation fluid (Ecoscint, National Diagnostics, Atlanta, Ga.) was then added at 3 ml per vial. Samples were counted in a liquid scintillation counter (Beckman LS3801). IC50 values were calculated by Prism Curve fitting software.
All of the alkanedioic esters and amides exemplified in the foregoing examples dissolved in DMSO were tested in this assay. Binding curves were generated according to methods described by Thibonnier et al. (1994). [^3H]-AVP was added to the hV1a cell cultures followed by 10-fold dilutions of each test compound.

T1 sequence (P37288 whole entry): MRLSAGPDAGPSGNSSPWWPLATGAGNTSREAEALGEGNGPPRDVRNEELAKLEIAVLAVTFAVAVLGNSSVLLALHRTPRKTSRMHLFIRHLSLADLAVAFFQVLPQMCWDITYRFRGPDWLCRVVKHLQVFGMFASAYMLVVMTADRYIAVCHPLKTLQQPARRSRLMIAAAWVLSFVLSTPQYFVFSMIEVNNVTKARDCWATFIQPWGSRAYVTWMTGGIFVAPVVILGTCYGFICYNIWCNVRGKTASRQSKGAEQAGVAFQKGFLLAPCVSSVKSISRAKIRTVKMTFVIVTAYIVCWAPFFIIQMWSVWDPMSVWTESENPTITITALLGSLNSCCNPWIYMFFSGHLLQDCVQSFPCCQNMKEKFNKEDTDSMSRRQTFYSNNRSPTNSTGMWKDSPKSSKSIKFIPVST

O=C(NCc1cccc(C(F)(F)F)c1)C(C(=O)N1CCN(CCc2ccccc2)CC1)N1C(=O)[C@@H](N2C(=O)OC[C@@H]2c2ccccc2)[C@H]1/C=C/c1ccccc1 (mixture of isomers) [Example 38]
Ki: 85 nM

CC(C)N1CCN(C(=O)C(C(=O)NCc2cccc(C(F)(F)F)c2)N2C(=O)[C@@H](N3C(=O)OC[C@@H]3c3ccccc3)[C@H]2/C=C/c2ccccc2)CC1 (mixture of isomers) [Example 41]
Ki: 18.2 nM

O=C(NCc1cccc(C(F)(F)F)c1)C(C(=O)N1CCN(C2CCCCC2)CC1)N1C(=O)[C@@H](N2C(=O)OC[C@@H]2c2ccccc2)[C@H]1/C=C/c1ccccc1 (mixture of isomers) [Example 42]
Ki: 26.4 nM

O=C(NC(c1ccccc1)C(F)(F)F)C(CC(=O)N1CCC(N2CCCCC2)CC1)N1C(=O)C(N2C(=O)OCC2c2ccccc2)C1C=Cc1ccccc1 (single isomer, unassigned) [Example 623]
Ki: 0.85 nM

O=C(NC(c1ccccc1)C(F)(F)F)C(CC(=O)N1CCC(N2CCCCC2)CC1)N1C(=O)C(N2C(=O)OCC2c2ccccc2)C1C=Cc1ccccc1 (single isomer, unassigned) [Example 626]
Ki: 0.27 nM

CC(C)(C)OC(=O)C(C(=O)NCc1cccc(C(F)(F)F)c1)N1C(=O)C(N2C(=O)OCC2c2ccccc2)C1C=Cc1ccccc1 [Example 18, 2(RS)-(tert-Butoxycarbonyl)-2-[3(S)-(4(S)-phenyloxazolidin-2-on-3-yl)-4(R)-(2-styryl)azetidin-2-on-1-yl]acetic acid N-(3-trifluoromethylbenzyl)amide]
IC50: 35 nM

CC(C)(C)OC(=O)CC(C(=O)NCc1cccc(C(F)(F)F)c1)N1C(=O)C(N2C(=O)OCC2c2ccccc2)C1C=Cc1ccccc1 [Example 19, 2(S)-(tert-Butoxycarbonylmethyl)-2-[3(S)-(4(S)-phenyloxazolidin-2-on-3-yl)-4(R)-(2-styryl)azetidin-2-on-1-yl]acetic acid N-(3-trifluoromethylbenzyl)amide]
IC50: 35 nM

CC(C)(C)OC(=O)CCC(C(=O)NCc1cccc(C(F)(F)F)c1)N1C(=O)C(N2C(=O)OCC2c2ccccc2)C1C=Cc1ccccc1 [Example 20, 2(S)-(tert-Butoxycarbonylethyl)-2-[3(S)-(4(S)-phenyloxazolidin-2-on-3-yl)-4(R)-(2-styryl)azetidin-2-on-1-yl]acetic acid N-(3-trifluoromethylbenzyl)amide]
IC50: 35 nM

O=C(NCc1cccc(C(F)(F)F)c1)C(C(=O)N1CCC(N2CCCCC2)CC1)N1C(=O)C(N2C(=O)OCC2c2ccccc2)C1C=Cc1ccccc1 (stereo not shown) [Example 37]
IC50: 5.5 nM
Ki: 3.39 nM

O=C(NCc1cccc(C(F)(F)F)c1)C(C(=O)NC1CCN(Cc2ccccc2)CC1)N1C(=O)C(N2C(=O)OCC2c2ccccc2)C1C=Cc1ccccc1 (stereo not shown) [Example 39]
IC50: 23 nM
Ki: 13.3 nM

CCCCN1CCN(C(=O)C(C(=O)NCc2cccc(C(F)(F)F)c2)N2C(=O)C(N3C(=O)OCC3c3ccccc3)C2C=Cc2ccccc2)CC1 (stereo not shown) [Example 40]
IC50: 11 nM
Ki: 6.5 nM

O=C(NCc1cccc(C(F)(F)F)c1)C(C(=O)N1CCC(CCN2CCCCC2)CC1)N1C(=O)C(N2C(=O)OCC2c2ccccc2)C1C=Cc1ccccc1 (stereo not shown) [Example 42A]
IC50: 1.77 nM
Ki: 1.17 nM

O=C(CC(C(=O)NCc1cccc(C(F)(F)F)c1)N1C(=O)C(N2C(=O)OCC2c2ccccc2)C1C=Cc1ccccc1)NC1CCN(Cc2ccccc2)CC1 (stereo not shown) [Example 63]
IC50: 1.84 nM
Ki: 1.13 nM

O=C(NCc1cccc(C(F)(F)F)c1)[C@H](CC(=O)N1CCCN(Cc2ccccc2)CC1)N1C(=O)[C@@H](N2C(=O)OC[C@@H]2c2ccccc2)[C@H]1/C=C/c1ccccc1 [Example 82]
Ki: 5.12 nM

O=C(CC(C(=O)NCc1cccc(C(F)(F)F)c1)N1C(=O)C(N2C(=O)OCC2c2ccccc2)C1C=Cc1ccccc1)NC1CCN(Cc2ccccc2)C1 (stereo not shown) [Example 85]
IC50: 5.87 nM
Ki: 3.6 nM

O=C(NCc1cccc(C(F)(F)F)c1)C(CC(=O)N1CCC(CCN2CCCCC2)CC1)N1C(=O)C(N2C(=O)OCC2c2ccccc2)C1C=Cc1ccccc1 (stereo not shown) [Example 86A]
IC50: 9.79 nM
Ki: 6 nM

O=C(CC[C@@H](C(=O)NCc1cccc(C(F)(F)F)c1)N1C(=O)[C@@H](N2C(=O)OC[C@@H]2c2ccccc2)[C@H]1/C=C/c1ccccc1)NCCN1CCCCC1 [Example 87]
IC50: 15 nM

O=C(NCc1cccc(C(F)(F)F)c1)[C@H](CCC(=O)N1CCN(N2CCCC2)CC1)N1C(=O)[C@@H](N2C(=O)OC[C@@H]2c2ccccc2)[C@H]1/C=C/c1ccccc1 [Example 91]
IC50: 3.24 nM
Ki: 1.99 nM

O=C(NCc1cccc(C(F)(F)F)c1)C(CCC(=O)N1CCN(Cc2ccccc2)CC1)N1C(=O)C(N2C(=O)OCC2c2ccccc2)C1C=Cc1ccccc1 (stereo not shown) [Example 95]
IC50: 1.76 nM
Ki: 1.08 nM

O=C(NCc1cccc(C(F)(F)F)c1)C(CCC(=O)N1CCN(Cc2ccc3c(c2)OCO3)CC1)N1C(=O)C(N2C(=O)OCC2c2ccccc2)C1C=Cc1ccccc1 (stereo not shown) [Example 96]
IC50: 4.35 nM
Ki: 2.66 nM

O=C(NCc1cccc(C(F)(F)F)c1)C(CCC(=O)N1CCN(CCC2CCCCC2)CC1)N1C(=O)C(N2C(=O)OCC2c2ccccc2)C1C=Cc1ccccc1 (stereo not shown) [Example 111]
IC50: 1.31 nM
Ki: 0.82 nM

O=C(NCc1cccc(C(F)(F)F)c1)C(CCC(=O)N1CCN(CCN2CCOCC2)CC1)N1C(=O)C(N2C(=O)OCC2c2ccccc2)C1C=Cc1ccccc1 (stereo not shown) [Example 112]
IC50: 1.34 nM
Ki: 0.8 nM

O=C(NCc1cccc(C(F)(F)F)c1)C(CCC(=O)N1CCC(CCN2CCCCC2)CC1)N1C(=O)C(N2C(=O)OCC2c2ccccc2)C1C=Cc1ccccc1 (stereo not shown) [Example 120A]
IC50: 16.2 nM
Ki: 9.9 nM

CCCN1CCN(C(=O)CCC(C(=O)NCc2cccc(C(F)(F)F)c2)N2C(=O)C(N3C(=O)OCC3c3ccccc3)C2C=Cc2ccccc2)CC1 (stereo not shown) [Example 120B]
IC50: 2.93 nM
Ki: 1.79 nM

O=C(NCc1cccc(C(F)(F)F)c1)C(CCC(=O)N1CCN(CC2CCCCC2)CC1)N1C(=O)C(N2C(=O)OCC2c2ccccc2)C1C=Cc1ccccc1 (stereo not shown) [Example 120]
IC50: 0.75 nM
Ki: 0.46 nM

O=C(NC1(c2ccccc2)CCCC1)C(CC(=O)N1CCC(N2CCCCC2)CC1)N1C(=O)C(N2C(=O)OCC2c2ccccc2)C1C=Cc1ccccc1 (stereo not shown) [Example 132D]
IC50: 6.3 nM
Ki: 3.9 nM

O=C(NCc1cccc(C(F)(F)F)c1)C(CC(=O)N1CCC(CCN2CCCCC2)CC1)N1C(=O)C(N2C(=O)OCC2c2ccccc2)C1C=Cc1ccccc1 (stereo not shown) [Example 134A]
IC50: 12.9 nM
Ki: 7.9 nM

O=C(NCc1cccc(C(F)(F)F)c1)[C@@H](CC(=O)N1CCN(N2CCCC2)CC1)N1C(=O)[C@@H](N2C(=O)OC[C@@H]2c2ccccc2)[C@H]1/C=C/c1ccccc1 [Example 134B]
IC50: 44.8 nM
Ki: 27.5 nM

O=C(CC(C(=O)NCc1cccc(C(F)(F)F)c1)N1C(=O)C(N2C(=O)OCC2c2ccccc2)C1C=Cc1ccccc1)NC1CCN(Cc2ccccc2)CC1 (stereo not shown) [Example 134C]
IC50: 9.1 nM
Ki: 5.58 nM

O=C(NCc1cccc(C(F)(F)F)c1)C(CC(=O)N1CCC(CN2CCCCC2)CC1)N1C(=O)C(N2C(=O)OCC2c2ccccc2)C1C=Cc1ccccc1 (stereo not shown) [Example 134G]
IC50: 6 nM
Ki: 3.7 nM

CC(C)(NC(=O)C(CC(=O)N1CCC(N2CCCCC2)CC1)N1C(=O)C(N2C(=O)OCC2c2ccccc2)C1C=Cc1ccccc1)c1ccccc1 (stereo not shown) [Example 134J]
IC50: 5.29 nM
Ki: 3.25 nM

O=C(NCc1cccc(C(F)(F)F)c1)C(CCC(=O)N1CCN(CCc2ccccc2)CC1)N1C(=O)C(N2C(=O)OCC2c2ccccc2)C1C=Cc1ccccc1 (stereo not shown) [Example 136]
IC50: 11 nM
Ki: 33 nM

CCCCN1CCN(C(=O)CCC(C(=O)NCc2cccc(C(F)(F)F)c2)N2C(=O)C(N3C(=O)OCC3c3ccccc3)C2C=Cc2ccccc2)CC1 (stereo not shown) [Example 137]
IC50: 17 nM
Ki: 10.5 nM

CC(C)N1CCN(C(=O)CCC(C(=O)NCc2cccc(C(F)(F)F)c2)N2C(=O)C(N3C(=O)OCC3c3ccccc3)C2C=Cc2ccccc2)CC1 (stereo not shown) [Example 138]
IC50: 21 nM
Ki: 13 nM

O=C(NCc1cccc(C(F)(F)F)c1)C(CCC(=O)N1CCN(C2CCCCC2)CC1)N1C(=O)C(N2C(=O)OCC2c2ccccc2)C1C=Cc1ccccc1 (stereo not shown) [Example 139]
IC50: 9.5 nM
Ki: 5.84 nM

O=C(NCc1cc(F)cc(F)c1)[C@H](CCC(=O)N1CCN(C2CCCCC2)CC1)N1C(=O)[C@@H](N2C(=O)OC[C@@H]2c2ccccc2)[C@H]1/C=C/c1ccccc1 [Example 185]
Ki: 0.82 nM

COc1cccc(C(C)NC(=O)C(CCC(=O)N2CCN(C3CCCCC3)CC2)N2C(=O)C(N3C(=O)OCC3c3ccccc3)C2C=Cc2ccccc2)c1 (stereo not shown) [Example 203]
IC50: 2.46 nM
Ki: 1.5 nM

CCN1CCC[C@H]1CNC(=O)CC[C@@H](C(=O)N[C@@H]1CCCc2ccccc21)N1C(=O)[C@@H](N2C(=O)OC[C@@H]2c2ccccc2)[C@H]1/C=C/c1ccccc1 [Example 221AI]
IC50: ~50 nM
